Assay results taken from patent US20090298872A1, “COMPOUNDS AND COMPOSITIONS AS MODULATORS OF STEROIDAL RECEPTORS AND CALCIUM CHANNEL ACTIVITIES” (IRM LLC, priority 2004, published 2009).

Assays:
Format in all cases: cell-based
AR = target: T1, AR (Homo sapiens, UniProt P10275, Q868H); test: Functional assay of androgen receptor antagonism (MMTV luciferase reporter, MDA-kb2 cells); conditions: antagonism of dihydrotestosterone (0.3 nM)-induced AR activity
T1 construct: endogenous in cells; host or cells: MDA-kb2 cells (ATCC)
T1 sequence (P10275 1-920 Q868H): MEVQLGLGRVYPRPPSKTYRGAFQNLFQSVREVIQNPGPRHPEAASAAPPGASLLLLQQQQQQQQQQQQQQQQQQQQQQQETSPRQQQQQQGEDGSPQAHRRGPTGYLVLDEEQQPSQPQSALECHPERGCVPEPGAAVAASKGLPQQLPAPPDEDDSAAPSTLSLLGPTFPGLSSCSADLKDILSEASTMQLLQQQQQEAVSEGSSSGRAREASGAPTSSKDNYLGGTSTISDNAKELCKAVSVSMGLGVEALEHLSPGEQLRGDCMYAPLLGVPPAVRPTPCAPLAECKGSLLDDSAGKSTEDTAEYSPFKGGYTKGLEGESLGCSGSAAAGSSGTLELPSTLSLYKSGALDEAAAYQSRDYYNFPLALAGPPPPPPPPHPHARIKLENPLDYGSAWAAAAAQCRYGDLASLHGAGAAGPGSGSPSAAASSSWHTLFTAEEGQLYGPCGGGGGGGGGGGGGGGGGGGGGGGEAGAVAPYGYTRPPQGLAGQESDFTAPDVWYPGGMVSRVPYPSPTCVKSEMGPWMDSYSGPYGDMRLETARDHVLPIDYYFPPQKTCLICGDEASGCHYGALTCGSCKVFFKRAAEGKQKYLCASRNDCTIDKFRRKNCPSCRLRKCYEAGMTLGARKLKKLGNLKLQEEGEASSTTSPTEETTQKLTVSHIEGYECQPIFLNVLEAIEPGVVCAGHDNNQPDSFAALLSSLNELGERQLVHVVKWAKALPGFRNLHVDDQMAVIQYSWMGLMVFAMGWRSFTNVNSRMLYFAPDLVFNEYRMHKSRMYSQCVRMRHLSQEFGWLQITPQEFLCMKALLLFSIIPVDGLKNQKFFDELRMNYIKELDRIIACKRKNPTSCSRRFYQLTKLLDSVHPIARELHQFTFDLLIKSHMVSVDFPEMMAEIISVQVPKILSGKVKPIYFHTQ
Description: The AR antagonist activity of the compounds is determined with the MDA-Kb2 cell line (ATCC), which stably expresses the MMTV luciferase reporter. The MMTV promoter is a mouse mammary tumor virus promoter that contains androgen receptor response elements. […] Upon stimulation with AR ligands, such as dihydrotestosterone, the MMTV luciferase reporter can be activated.
The assay is performed in 384 well plates. Briefly, MDA-kb2 cells are plated in 384 well plates at a density of approximately 2.4×10^4 cells/well in 50 μl medium. The medium is supplemented with 5% charcoal-dextran treated fetal bovine serum (Hyclone). Twenty four hours later, compounds prepared in DMSO are transferred to the cells. The cells are then stimulated with 0.3 nM final concentration of dihydrotestosterone (Sigma) and incubated at 37° C. for another 24 hours before the luciferase activity is assayed with 20 μl of Bright-Glo (Promega) using a luminometer (CLIPR). The expression of luciferase is used as an indicator of dihydrotestosterone-induced AR trans-activation. Each compound is tested in duplicate with a 12-concentration titration. IC50 values (defined as the concentration of test compound required to antagonize 50% of dihydrotestosterone-induced AR activity) are determined from the dose-response curve.

MR = target: T2, MR (Homo sapiens, UniProt P08235); test: Functional assay of mineralocorticoid receptor antagonism (mammalian two hybrid luciferase reporter, 293T cells); conditions: antagonism of aldosterone (0.4 nM)-induced MR activity
T2 construct: expressed in transfected cells; host or cells: 293T cells (ATCC)
T2 sequence (P08235 672-984): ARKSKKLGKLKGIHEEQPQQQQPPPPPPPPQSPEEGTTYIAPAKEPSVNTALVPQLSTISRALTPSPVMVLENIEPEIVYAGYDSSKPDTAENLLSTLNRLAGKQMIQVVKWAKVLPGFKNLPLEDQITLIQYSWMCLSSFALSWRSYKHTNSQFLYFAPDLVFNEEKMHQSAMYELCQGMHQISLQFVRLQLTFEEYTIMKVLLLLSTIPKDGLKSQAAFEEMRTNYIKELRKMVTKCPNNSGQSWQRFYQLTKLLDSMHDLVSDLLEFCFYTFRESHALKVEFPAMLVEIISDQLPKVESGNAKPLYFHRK
Description: The MR antagonist activity of the compounds is determined in a mammalian two hybrid reporter system. The N-terminus of MR (MR-NT, sequence coding amino acid 1-597) is fused to the activation domain of the VP16 gene. The ligand binding domain of MR (MR-LBD, sequence encoding amino acid 672-984) is fused to the DNA binding domain of the yeast Gal4 gene. The MR gene is cloned from a human kidney cDNA library with PCR.
The assay is performed in 384 well plates. Briefly, 293T cells (ATCC) are transfected with expression vectors for Gal4-MR-LBD and VP16-MR NT, and a luciferase reporter vector containing Gal4 binding sequence (pG5-Luc). Cells are plated in 384 well plates immediately after transfection (approximately 3×10^4 cells/well in 50 μl medium). The medium is supplemented with 3% charcoal-dextran treated fetal bovine serum (Hyclone). Twenty four hours after transfection, compounds prepared in DMSO are transferred to the cells. The cells are then stimulated with 0.4 nM final concentration of aldosterone (Acros) and incubated at 37° C. for another 24 hours before the luciferase activity is assayed with 20 μl of Bright-Glo (Promega) using a luminometer (CLIPR). The expression of luciferase is used as an indicator of aldosterone-induced MR trans-activation. Each compound is tested in duplicate with 12-concentration titration. IC50 values (defined as the concentration of test compound required to antagonize 50% of aldosterone-induced MR activity) are determined from the dose-response curve.

GR = target: T3, GR (Homo sapiens, UniProt P04150); test: Functional assay of glucocorticoid receptor antagonism (Gal4-GR-LBD luciferase reporter, COS-7 cells); conditions: antagonism of dexamethasone (10 nM)-induced GR activity
T3 construct: expressed in transfected cells; host or cells: COS-7 cells (ATCC)
T3 sequence (P04150 541-778 isoform P04150-3): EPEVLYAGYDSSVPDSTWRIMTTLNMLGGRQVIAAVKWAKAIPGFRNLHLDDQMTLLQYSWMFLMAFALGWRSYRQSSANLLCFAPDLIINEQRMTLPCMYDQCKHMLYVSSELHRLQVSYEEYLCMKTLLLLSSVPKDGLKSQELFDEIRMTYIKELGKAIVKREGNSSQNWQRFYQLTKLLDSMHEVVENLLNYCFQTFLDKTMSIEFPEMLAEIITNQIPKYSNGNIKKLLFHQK
Description: The GR antagonist activity of the compounds is determined in a mammalian two hybrid reporter system. The ligand binding domain of GR (GR-LBD, sequence encoding amino acid 541-778) is fused to the DNA binding domain of the yeast Gal4 gene. The GR gene is cloned from a human lung cDNA library with PCR.
The assay is performed in 384 well plates: COS-7 cells (ATCC) are transfected with expression vectors for Gal-4-GR-LBD and a luciferase reporter vector containing Gal4 binding sequence (pG5-Luc). Cells are plated in 384 well plates immediately after transfection (approximately 8000 cells/well in 50 μl medium). The medium is supplemented with 3% charcoal-dextran treated fetal bovine serum (Hyclone). Twenty four hours after transfection, compounds prepared in DMSO are transferred to the cells. The cells are then stimulated with 10 nM final concentration of dexamethasone (Sigma) and incubated at 37° C. for another 24 hours before the luciferase activity is assayed with 20 μl of Bright-Glo (Promega) using a luminometer (CLIPR). The expression of luciferase is used as an indicator of dexamethasone-induced GR trans-activation. Each compound is tested in duplicate with a 12-concentration titration. IC50 values (defined as the concentration of test compound required to antagonize 50% of dexamethasone-induced GR activity) are determined from the dose-response curve.

PR = target: T4, PR (Homo sapiens, UniProt P06401); test: Functional assay of progesterone receptor antagonism (progesterone-induced alkaline phosphatase, T-47D cells); conditions: antagonism of progesterone (3 nM)-induced PR activity
T4 construct: endogenous in cells; host or cells: T-47D cells (ATCC)
T4 sequence (P06401 1-933): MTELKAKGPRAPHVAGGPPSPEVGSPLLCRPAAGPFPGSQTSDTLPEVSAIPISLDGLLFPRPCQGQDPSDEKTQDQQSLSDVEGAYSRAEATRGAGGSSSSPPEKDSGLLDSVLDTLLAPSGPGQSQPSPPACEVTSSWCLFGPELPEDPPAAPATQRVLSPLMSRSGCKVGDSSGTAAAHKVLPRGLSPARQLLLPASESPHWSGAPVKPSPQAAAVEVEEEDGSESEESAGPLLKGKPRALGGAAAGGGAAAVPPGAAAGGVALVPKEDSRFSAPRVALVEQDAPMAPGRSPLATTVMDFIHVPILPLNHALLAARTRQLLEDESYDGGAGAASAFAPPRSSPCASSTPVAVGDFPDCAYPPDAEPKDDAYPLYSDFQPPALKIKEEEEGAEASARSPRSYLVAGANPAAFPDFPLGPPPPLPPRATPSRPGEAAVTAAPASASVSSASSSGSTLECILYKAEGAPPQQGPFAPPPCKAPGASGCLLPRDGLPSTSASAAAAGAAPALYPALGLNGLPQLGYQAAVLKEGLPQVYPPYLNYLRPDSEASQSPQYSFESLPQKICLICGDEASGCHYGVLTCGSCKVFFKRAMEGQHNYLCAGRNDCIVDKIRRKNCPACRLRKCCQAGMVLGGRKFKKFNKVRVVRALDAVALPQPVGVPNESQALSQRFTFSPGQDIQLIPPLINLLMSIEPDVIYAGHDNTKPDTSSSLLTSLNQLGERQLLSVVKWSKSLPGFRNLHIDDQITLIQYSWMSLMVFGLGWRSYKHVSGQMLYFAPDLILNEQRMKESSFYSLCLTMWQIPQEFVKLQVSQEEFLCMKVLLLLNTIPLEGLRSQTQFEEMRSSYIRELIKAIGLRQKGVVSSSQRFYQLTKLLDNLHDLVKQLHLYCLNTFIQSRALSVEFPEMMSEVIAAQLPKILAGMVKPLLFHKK
Description: The PR antagonist activity of the compounds is determined by progesterone-induced alkaline phosphatase activity in the T-47D cell line (ATCC). In the T-47D breast cancer cells, progesterone specifically induces de novo synthesis of a membrane-associated alkaline phosphatase enzyme in a time and dose-dependent manner (Di Lorenzo et al., Cancer Research, 51: 4470-4475 (1991)). The alkaline phosphatase enzymatic activity can be measured with a chemiluminescent substrate, such as CSPD® (Applied Biosystems).
The assay is performed in 384 well plates. Briefly, T-47D cells are plated in 384 well plates at a density of approximately 2.5×10^4 cells/well in 50 μl medium supplemented with 10% fetal bovine serum. Twenty four hours later, the medium is aspirated. New medium that is free of phenol red and serum is added to the cells. Compounds prepared in DMSO are transferred to the cells. The cells are then stimulated with 3 nM final concentration of progesterone (Sigma) and incubated at 37° C. for another 24 hours before the alkaline phosphatase is assayed with 25 μl of CSPD® (Applied Biosystems) using a luminometer (CLIPR). The expression of alkaline phosphatase is used as an indicator of progesterone-induced PR trans-activation. Each compound is tested in duplicate with a 12-concentration titration. […]

IC50 (AR) [nM] | IC50 (MR) [nM] | IC50 (GR) [nM] | IC50 (PR) [nM] | Structure (SMILES)
2600 | 8 | – | – | COc1ccccc1NC(=O)C1=C(C)NC(SC)=C(C#N)C1c1ccccc1Br (stereo not shown) [Compound 14, 2-methylthio-3-cyano-4-(2-bromophenyl)-5-(2-methoxyphenyl)carbamoyl-6-methyl-1,4-dihydro-pyridine]
39800 | 9 | 3100 | 2300 | COCC1=C(C(=O)OC(C)C)C(c2ccc(F)cc2Br)C(C#N)=C(C)N1 (stereo not shown) [Compound 96, 5-isopropyl-2-methyl-3-cyano-4-(2-bromo-4-fluorophenyl)-6-(methoxymethyl)-1,4-dihydro-pyridine-5-carboxylate]
2860 | 41 | 6850 | 478 | COC(=O)C1=C(C)NC(C)=C(C#N)C1c1ccc(F)cc1Cl (stereo not shown) [Example 207, 5-methyl-2,6-dimethyl-3-cyano-4-(2-chloro-4-fluorophenyl)-1,4-dihydro-pyridine-5-carboxylate]
